Test results as given in patent US20150147309A1, “ALLOSTERIC CHAPERONES AND USES THEREOF” (Fondazione Telethon, priority 2012, published 2015).

Legend:
rhGAA = biological target: T1, rhGAA (Homo sapiens, UniProt P10253); assay: Effect of compounds on rhGAA stability at neutral pH (residual α-glucosidase activity); format: biochemical
T1 construct: purchased Genzyme Co, Cambridge, Mass., USA
Protocol: The standard activity assay of rhGAA was performed in 200 μl by using 5 μg of enzyme at 37° C. in 100 mM sodium acetate pH 4.0 and 20 mM 4NP-Glc. The reaction was started by adding the enzyme; after suitable incubation time (1-2 min) the reaction was blocked by adding 800 μL of 1 M sodium carbonate pH 10.2. Absorbance was measured at 420 nm at room temperature, the extinction coefficient to calculate enzymatic units was 17.2 mM^−1 cm^−1. One enzymatic unit is defined as the amount of enzyme catalyzing the conversion of 1 μmol substrate into product in 1 min, under the indicated conditions.
The effect of different pHs on the rhGAA stability was measured by preparing reaction mixtures containing 0.75 mg mL^−1 of enzyme in the presence of 50 mM citrate/phosphate (pH 3.0-7.0) at a certain pH. After incubations at 37° C., aliquots were withdrawn at the times indicated and the residual α-glucosidase activity was measured with the standard assay. To test the effect on the pH stability of rhGAA of chemical chaperons and of the other molecules, experiments were performed as described above by adding to the reaction mixtures the amounts of the different compounds indicated in the text.

mutated GAA [1] = biological target: T2, mutated GAA (Homo sapiens, UniProt P10253, A445P); assay: Mutated GAA gene constructs expressed in COS7 cells (GAA activity, western blot); format: cell-based; details: 10 mM
T2 construct: expressed in transfected cells; host or cells: COS7 cells
Protocol: (§1) GAA activity was assayed by using the fluorogenic substrate 4-methylumbelliferyl-alpha-D-glucopyranoside (Sigma-Aldrich) according to a published procedure [Porto et al, 2009]. Briefly, 25 micrograms of protein were incubated with the fluorogenic substrate (2 mM) in 0.2 M acetate buffer, pH 4.0, for 60 minutes in incubation mixtures of 100 μl. The reaction was stopped by adding 700 μl of glycine-carbonate buffer, pH 10.7. Fluorescence was read at 365 nm (excitation) and 450 nm (emission) on a Turner Biosystems Modulus fluorometer. Protein concentration in cell homogenates was measured by the Bradford assay (Biorad, Hercules, Calif.).
(§2) To study GAA immunoreactive material, fibroblast extracts were subjected to western blot analysis. The cells were harvested, washed in phosphate-buffered saline, resuspended in water, and disrupted by five cycles of freeze-thawing. Equal amounts (20 μg protein) of fibroblast extracts were subjected to sodium dodecyl sulfate polyacrylamide gel electrophoresis and proteins were transferred to PVD membrane (Millipore, Billerica, Mass.). An anti-human GAA antiserum was used as primary antibody to detect GAA polypeptides; to detect β-actin, a monoclonal mouse antibody was used Immunoreactive proteins were detected by chemiluminescence (ECL, Amersham, Freiburg, Germany)
(§3) The response of individual mutations to NAC was further evaluated by expressing a panel of mutated GAA gene constructs in COST cells, according to the methods reported in previous studies [Parenti et al, 2007; Flanagan et a, 2009] (FIG. 5B). The mutated constructs were chosen to be representative of both imino sugar-responsive and non-responsive mutations, in order to compare the chaperoning profile of NAC with that of imino sugars. The cells were transfected with the mutated constructs, incubated either in the presence or in the absence of 10 mM NAC and harvested 72 hours after transfection.

mutated GAA [2] = biological target: T3, mutated GAA (Homo sapiens, UniProt P10253, E579K); assay: as above; format: cell-based; details: 10 mM, COS7 cells (FIG. 5B)
T3 construct: expressed in transfected cells; host or cells: COS7 cells
Protocol: as §1, §2, §3

mutated GAA [3] = biological target: T4, mutated GAA (Homo sapiens, UniProt P10253, G377R); assay: as above; format: cell-based; details: 10 mM, harvested 72 hours after transfection
T4 construct: expressed in transfected cells; host or cells: COS7 cells
Protocol: as §1, §2, §3

mutated GAA [4] = biological target: T5, mutated GAA (Homo sapiens, UniProt P10253, G549R); assay: as above; format: cell-based; details: 10 mM, COS7 cells, non-responsive mutation
T5 construct: expressed in transfected cells; host or cells: COS7 cells
Protocol: as §1, §2, §3

mutated GAA [5] = biological target: T6, mutated GAA (Homo sapiens, UniProt P10253, L552P); assay: as above; format: cell-based; details: 10 mM
T6 construct: expressed in transfected cells; host or cells: COS7 cells
Protocol: as §1, §2, §3

mutated GAA [6] = biological target: T7, mutated GAA (Homo sapiens, UniProt P10253, Y455F); assay: as above; format: cell-based; details: 10 mM, harvested 72 hours after transfection, p<0.05
T7 construct: expressed in transfected cells; host or cells: COS7 cells
Protocol: as §1, §2, §3

GAA activity in tissues = biological target: T8, GAA activity in tissues (Homo sapiens, UniProt P10253); assay: Synergy between NAC and rhGAA in vivo in mouse model of PD; set-up: species or system mice; details: oral NAC 5 days, rhGAA 100 mg/kg on day 3, liver, heart, diaphragm, gastrocnemium, not statistically significant
T8 construct: purchased Genzyme Co, Cambridge, Mass., USA
Protocol: Animal studies were performed according to the European Union Directive 86/609, regarding the protection of animals used for experimental purposes. The animals, mice model of PD [Raben et al, 1993], were allowed to drink 138 mM NAC in water ad libitum (4.2 g/kg/day) for 5 days. On day 3 they received a single rhGAA injection (100 mg/kg) in the tail vein. On day 5 the animals were sacrificed and tissues were analyzed for GAA activity.

With CC(=O)N[C@@H](CS)C(=O)O [NAC, N-acetyl cysteine] the “dose dependence of stabilizing effect on rhGAA” value (rhGAA; 0, 0.1, 1, 10 mM, neutral pH) was “dose dependent”, the “rhGAA activity detectable after incubation” value (rhGAA; 10 mM, neutral pH 7.0, 37° C., after 48 h of incubation) was “about 90%” and the “stabilization of rhGAA at neutral pH” value (rhGAA; pH 7.0, 37° C., 0.1-10 mM, up to 48 hrs) was “rescued”. For the same molecule, the “76 KDa or 70 kDa active isoforms of GAA on western blot, p.A445P” value (mutated GAA [1]; COS7 cells) was “increase”, the “GAA activity, mutation p.A445P” value (mutated GAA [1]; harvested 72 hours after transfection, p<0.05) was “enhancement of GAA activity” and the “GAA activity, mutation p.E579K” value (mutated GAA [2]) was “increases of GAA activity”. The “increase in GAA activity, mutation pG377R” value (mutated GAA [3]) was “not statistically significant”, the “amounts of GAA active isoforms on western blot, p.G549R” value (mutated GAA [4]) was “no change” and the “76 KDa or 70 kDa active isoforms of GAA on western blot, p.L552P” value (mutated GAA [5]; COS7 cells) was “increase”. For the same molecule, the “GAA activity, mutation p.L552P” value (mutated GAA [5]; harvested 72 hours after transfection, p<0.01) was “enhancement of GAA activity”, the “GAA activity, mutation p.Y455F” value (mutated GAA [6]) was “enhancement of GAA activity” and the “correction of GAA enzyme activity in tissues, combination with rhGAA vs rhGAA alone” value (GAA activity in tissues) was “superior to rhGAA alone”.
